Results as given in US20140221469A1, “PHYTOCANNABINOIDS FOR USE IN THE TREATMENT OF CANCER” (Otsuka Pharmaceutical Co., Ltd., priority 2011, published 2014).
Read-outs that look alike come from different tables or passages of the source.

What was measured:
U87-MG cells = test: Cell motility assay (Boyden chamber), U87-MG; type: cell-based, human
Procedure: (§1) BD BioCoat Control Inserts (BD, USA) were used to examine the ability of U87-MG cells to migrate through an 8.0 micron pore size PET membrane. U87-MG cells (2.5×10^4 cells) were re-suspended in 500 μl of serum-free medium in presence of phytocannabinoids, and added to the upper chamber. The lower chamber was filled with 0.75 ml of complete medium as chemo-attractant. Cells were then incubated for 22 h at 37° C. After removal of cells on the upper surface of the membrane, cells on the lower surface were fixed in 100% methanol and stained with Diff-Quick stain (Medion Diagnostics, USA). Sixteen fields of cells were counted randomly in each well under a light microscope at 200× magnification. Data was expressed as the percentage of migrating cells as compared with the control. All the experiments were performed in triplicates and results were expressed as mean±SEM of three independent experiments.
The effect of THCV on U87 glioma cells invasion and motility was determined by Boyden chamber assay. […] The effect was even evident at concentrations as low as 0.25 μM.

T98G glioma cells [1] = test: Cell migration (Boyden chamber), T98G; type: cell-based, human; conditions: for Inhibition of migration of the cells: irrespective of the concentration used
Procedure: as §1
(§2) In a further set of experiments, Examples 8-10 the compounds were evaluated on a different cell line, T98G, which was obtained from the American Type Culture Collection (Rockville, USA). The protocols employed were as described above.
The effect of CBDV on T98G glioma cells invasion and motility was determined by Boyden chamber assay.

T98G cell line = test: MTT test, T98G; type: cell-based, human; conditions: for Effect of pre-treatment with CB1 antagonist on anti-proliferative effect: AM251; for Effect of pre-treatment with CB2 antagonist on anti-proliferative effect: AM630
Procedure: (§3) To determine the effects of the phytocannabinoids upon cell viability, the applicants employed a MTT colorimetric assay ([3-(4,5-dimethyl-2-thiazolyl)-2,5-diphenyl-2H tetrazolium bromide]; Sigma-Aldrich). Briefly, U87 human glioma cells were seeded in a 96-well flat bottom multi-well at a density of 8000 cells/well. After 24 h, cells were treated with THCV, CBDV and CBG and/or receptor antagonists at the indicated concentrations. At the end of the incubation with the drugs, MTT (0.5 mg/ml final concentration) was added to each well and the incubation was then continued for 4 h. The insoluble formazan crystals were solubilized by the addition of 100 μl of 100% dimethyl sulfoxide. The plates were read at 570 nm using an automatic microtiter plate reader.
as §2

U87 cells [2] = test: Matrigel cell invasion assay, U87; type: cell-based, human
Procedure: (§4) BD BioCoat matrigel invasion chambers (BD, USA) were used to examine the ability of U87 cells to penetrate the extracellular matrix. U87 cells (2.5×10^4 cells) were re-suspended in 500 μl of serum-free medium in the presence of the phytocannabinoids, and added to the upper chamber. The lower chamber was filled with 0.75 ml of complete medium as chemo-attractant. Cells were then incubated for 22 h at 37° C. After removal of cells on the upper surface of the membrane, cells on the lower surface were fixed in 100% methanol and stained with Diff-Quick stain (Medion Diagnostics, USA). Sixteen fields of cells were counted randomly in each well under a light microscope at 200× magnification. Data was expressed as the percentage of invasive cells as compared with the control. All the experiments were performed in triplicates and results were expressed as mean±SEM of three independent experiments.
The matrigel invasion assay was carried out to further examine the effect of THCV on the invasiveness on U87 glioma cells.

T98G cell = test: Trypan Blue test, T98G; type: cell-based, human
Procedure: To further confirm the ability of CBDV, CBG and THCV to inhibit T98G cell growth, a Trypan Blue test was also conducted.

T98G glioma cells [3] = test: Matrigel invasion assay, T98G; type: cell-based, human
Procedure: as §4, §2
The matrigel invasion assay was carried out to further examine the effect of the CBDV on the invasiveness of T98G glioma cells.

U87 human glioma cells = test: MTT colorimetric cell viability assay, U87; type: cell-based; conditions: for IC50: Homo sapiens, U-87 MG, 24 h, read-out: IC50, drop of mitochondrial oxidative metabolism (MTT test); for Effect of CB1 antagonist on inhibition of cell proliferation / Effect of CB2 antagonist on inhibition of cell proliferation / Effect of TRPV1 vanilloid antagonist on inhibition of cell proliferation / Effect on tumour cell viability (MTT test), alone: U87; for Effect of CB1 antagonist on inhibition of cell proliferation: AM 251 (0.5 μM) added; for Effect of CB2 antagonist on inhibition of cell proliferation: SR 144528 (0.5 μM) for CBG, AM630 (0.5 μM) for CBDV; for Effect of TRPV1 vanilloid antagonist on inhibition of cell proliferation: capsazepine (0.625 μM) added
Procedure: The human glioma cell line U87-MG was obtained from the American Type Culture Collection (Rockville, USA). Cells were maintained in DMEM supplemented with 10% heat-inactivated foetal bovine serum (Euroclone, Italy), 1% glutamine, 1% antibiotic mixture, 1% sodium pyruvate, 1% non-essential amino acids, at 37° C. in a humidified 5% CO2 atmosphere. Cells were seeded in complete medium. After a 24 h incubation, the medium was replaced by serum-free medium (ITSS medium), consisting of DMEM supplemented with 5 μg/ml insulin, 5 μg/ml transferrin, and 5 […].
as §3

[4] = tested on: human breast cell line MDA MB 231; test: Migration in breast cell line MDA-MB 231; type: cell-based; conditions: MDA-MB 231 breast cell line
[5] = tested on: subcutaneously implanted U87 human glioma cells; conditions: nude mice, subcutaneous, 0.5 mg/mouse; cited from earlier work
U87 glioma cells = conditions: Boyden chamber; cited from earlier work
U87 cells [6] = test: Evaluation of apoptosis (propidium iodide flow cytometry), U87; type: cell-based, human; conditions: 24 h
Procedure: 3.4×10^5 tumour cells were cultured in 6 well-plates in the presence or absence of CBDV or THCV for 24 h, as described above and the percentage of apoptotic cells on the total cell population (adhering/detached cells) was evaluated. Briefly, cells were collected, washed, and centrifuged at 1300 rpm. They were then fixed in ethanol 70% for at least 30 min at −20° C. After centrifugation, the cell pellet was gently re-suspended in 1 ml of PBS solution containing propidium iodide (PI, 50 μg/ml) and RNAse (20 μg/ml). Cells were analyzed after a minimum of 30 min of incubation in the dark at room temperature, and apoptosis was detected in individual cells using a flow cytometer (equipped with a single 488-nm argon laser; BD Biosciences, San Jose, Calif.) by reduced fluorescence of PI in apoptotic nuclei.

[7] = tested on: recurrent glioblastoma multiforme; conditions: nine patients, intra-tumoural; 95% confidence interval: 15-33; cited from earlier work
[8] = Homo sapiens, 24 h, read-out: IC50, drop of mitochondrial oxidative metabolism (MTT test)

C=C(C)[C@@H]1CCC(C)=C[C@H]1c1c(O)cc(CCC)cc1O [CBDV, Cannabidivarin]
Concentration as low as which the anti-migratory effect was evident (U87-MG cells): 1 µM | Effect on cell migration (U87-MG cells): significantly inhibited the migration | Concentration as low as which the anti-migratory effect was evident (T98G glioma cells [1]): 0.5 µM | Inhibition of migration of the cells (T98G glioma cells [1]): 55% | IC50 (T98G cell line; 24 h after cannabinoid exposure): 27 µM | Effect of pre-treatment with CB1 antagonist on anti-proliferative effect (T98G cell line): exhibited some sensitivity | Effect of pre-treatment with CB2 antagonist on anti-proliferative effect (T98G cell line): exhibited some sensitivity | IC50 (T98G cell line; Homo sapiens, 24 h, read-out: IC50, drop of mitochondrial oxidative metabolism (MTT test), T98G, 24 h after cannabinoid exposure): 27.1 µM | Concentration as low as which the anti-invasive effect was evident (U87 cells [2]; U87): 1 µM | Decrease of the number of invading cells, average effect (U87 cells [2]; U87, across the concentrations tested): 45% | Cell viability, Trypan Blue test (T98G cell): inhibited cells viability in the same dose range as for MTT test | Inhibition of cell invasiveness (T98G glioma cells [3]; concentration range from 0.5 to 12 μM): about 70% | IC50 (U87 human glioma cells): 24.2 µM | Effect of CB1 antagonist on inhibition of cell proliferation (U87 human glioma cells): able to significantly increase the inhibitory action of CBDV on glioma cell growth at 19, 40, and 50 μM concentrations | Effect of CB2 antagonist on inhibition of cell proliferation (U87 human glioma cells): able to significantly increase the inhibitory action of CBDV on glioma cell growth at 19, 40, and 50 μM concentrations | Effect of TRPV1 vanilloid antagonist on inhibition of cell proliferation (U87 human glioma cells): a significant increase of the inhibitory action of CBDV was seen only at 14 and 19 μM

C=C(C)[C@@H]1CCC(C)=C[C@H]1c1c(O)cc(CCCCC)c(C(=O)O)c1O [CBDA, Cannabidiolic acid]
Effect on migration [4]: inhibit migration in a statistically significant manner

C=C(C)[C@@H]1CCC(C)=C[C@H]1c1c(O)cc(CCCCC)cc1O [CBD, Cannabidiol, reference compound]
Growth of subcutaneously implanted U87 human glioma cells [5]: significantly inhibited the growth | Migration of U87 glioma cells (U87 glioma cells): concentration-dependent inhibition | Effect on tumour cell viability (MTT test), alone (U87 human glioma cells; 5 μM): ineffective | Effect on tumour cell viability (MTT test), alone (U87 human glioma cells; 9 μM): effective | Apoptosis, alone (U87 cells [6]; 5 μM): did not cause any apoptosis | Apoptosis, alone (U87 cells [6]; 9 μM): significant induction of apoptosis

CCCCCc1cc(O)c2c(c1)OC(C)(C)[C@@H]1CCC(C)=C[C@@H]21 [THC, Tetrahydrocannabinol]
Median survival from the beginning of cannabinoid administration [7]: 24 weeks

CCCCCc1cc2c(c(O)c1C(=O)O)[C@@H]1C=C(C)CC[C@H]1C(C)(C)O2 [THCA, Tetrahydrocannabinolic acid]
Effect on migration [4]: inhibit migration in a statistically significant manner

CCCCCc1cc(O)c(C/C=C(\C)CCC=C(C)C)c(O)c1 [CBG, Cannabigerol]
Effect on cell migration (U87-MG cells): did not inhibit | Effect on cell migration (T98G glioma cells [1]): did not inhibit | Effect of pre-treatment with CB1 antagonist on anti-proliferative effect (T98G cell line): unaffected | Effect of pre-treatment with CB2 antagonist on anti-proliferative effect (T98G cell line): unaffected | IC50 (T98G cell line; [8]): 17.3 µM | Effect on cell invasion (U87 cells [2]; U87): did not inhibit | Cell viability, Trypan Blue test (T98G cell): inhibited cells viability in the same dose range as for MTT test | Effect on cell invasion (T98G glioma cells [3]): did not inhibit | IC50 (U87 human glioma cells): 12.1 µM | Effect of CB1 antagonist on inhibition of cell proliferation (U87 human glioma cells): able to antagonize the inhibitory action of the phytocannabinoid on glioma cells growth only at 19 and 25 μM concentrations | Effect of CB2 antagonist on inhibition of cell proliferation (U87 human glioma cells): failed to antagonize the anti-proliferative effect | Effect of TRPV1 vanilloid antagonist on inhibition of cell proliferation (U87 human glioma cells): failed to antagonize the anti-proliferative effect

CCCc1cc(O)c2c(c1)OC(C)(C)[C@@H]1CCC(C)=C[C@@H]21 [THCV, Tetrahydrocannabivarin]
Concentration as low as which the anti-migratory effect was evident (U87-MG cells): 0.25 µM | Inhibition of migration of the cells (U87-MG cells; irrespectively of the concentrations used, 22 h): 55% | Inhibition of migration of the cells (T98G glioma cells [1]): about 50% | Effect of pre-treatment with CB1 antagonist on anti-proliferative effect (T98G cell line): unaffected | Effect of pre-treatment with CB2 antagonist on anti-proliferative effect (T98G cell line): unaffected | IC50 (T98G cell line; [8]): 16.1 µM | inhibition at 5 µM (U87 cells [2]; Homo sapiens, U-87 MG, read-out: Inhibition of cell invasiveness): 55% | Inhibition of cell invasiveness (U87 cells [2]; U87, 0.5 and 1 μM): about 35% | Cell viability, Trypan Blue test (T98G cell): inhibited cells viability in the same dose range as for MTT test | Effect on cell invasion (T98G glioma cells [3]): U-shaped dose-response curve | IC50 (U87 human glioma cells): 13.8 µM | Effect on tumour cell viability (MTT test), alone (U87 human glioma cells; 5 μM): ineffective | Effect on tumour cell viability (MTT test), alone (U87 human glioma cells; 10 μM): effective | Effect of CB1 antagonist on inhibition of cell proliferation (U87 human glioma cells): none of the antagonists was effective in reversing and/or potentiating the effect | Effect of CB2 antagonist on inhibition of cell proliferation (U87 human glioma cells): none of the antagonists was effective in reversing and/or potentiating the effect | Effect of TRPV1 vanilloid antagonist on inhibition of cell proliferation (U87 human glioma cells): none of the antagonists was effective in reversing and/or potentiating the effect | Apoptosis, alone (U87 cells [6]; 5 μM): did not cause any apoptosis | Apoptosis, alone (U87 cells [6]; 10 μM): did not cause any apoptosis
